In one assay the test system is Escherichia coli. Kind of assay: In vitro antibacterial activity against Escherichia coli GC6265. The format is functional.
For another assay, the target named is Beta-lactamase (Enterobacter cloacae, UniProt P05364). Kind of assay: In vitro inhibitory activity against Beta-lactamase AmpC of class C enzyme.
A further assay has as its system Serratia marcescens. Kind of assay: In vitro antibacterial activity against Serratia marcescens GC4132 Beta-lactamase AmpC of class C enzyme. The format is functional.
In assay [1] the target is Beta-lactamase (Enterobacter cloacae) (UniProt P05364). To be noted: Pseudomonas aeruginosa.
Chain of Beta-lactamase (Enterobacter cloacae) (P05364 21-381 limits assumed): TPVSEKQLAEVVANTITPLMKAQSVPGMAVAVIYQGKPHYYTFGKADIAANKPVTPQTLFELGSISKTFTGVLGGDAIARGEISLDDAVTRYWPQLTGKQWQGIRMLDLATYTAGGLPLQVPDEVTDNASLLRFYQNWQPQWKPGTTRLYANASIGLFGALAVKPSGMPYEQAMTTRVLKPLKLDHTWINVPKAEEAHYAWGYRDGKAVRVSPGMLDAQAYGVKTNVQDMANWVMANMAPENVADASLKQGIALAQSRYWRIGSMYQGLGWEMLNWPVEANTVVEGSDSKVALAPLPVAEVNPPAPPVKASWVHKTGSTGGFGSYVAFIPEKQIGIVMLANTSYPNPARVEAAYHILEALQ
Description: In vitro antibacterial activity against Pseudomonas aeruginosa Beta-lactamase AmpC of class C enzyme
For assay [2], the target named is Beta-lactamase TEM (Escherichia coli) (UniProt P62593).
Chain of Beta-lactamase TEM (Escherichia coli) (P62593 whole entry): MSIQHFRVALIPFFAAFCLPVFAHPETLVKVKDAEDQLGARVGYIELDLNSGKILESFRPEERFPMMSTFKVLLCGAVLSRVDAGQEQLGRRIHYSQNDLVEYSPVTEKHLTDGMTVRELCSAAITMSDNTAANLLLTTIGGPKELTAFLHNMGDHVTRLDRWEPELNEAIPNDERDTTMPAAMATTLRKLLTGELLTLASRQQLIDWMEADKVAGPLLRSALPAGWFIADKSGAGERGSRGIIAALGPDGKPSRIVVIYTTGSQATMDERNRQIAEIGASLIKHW
Description: In vitro antibacterial activity against Escherichia coli GC4206 Beta-lactamase TEM-1 of class A enzyme
The target of assay [3] is Beta-lactamase (Enterobacter cloacae) (UniProt P05364). Conditions: Serratia marcescens.

Chain of Beta-lactamase (P05364 whole entry): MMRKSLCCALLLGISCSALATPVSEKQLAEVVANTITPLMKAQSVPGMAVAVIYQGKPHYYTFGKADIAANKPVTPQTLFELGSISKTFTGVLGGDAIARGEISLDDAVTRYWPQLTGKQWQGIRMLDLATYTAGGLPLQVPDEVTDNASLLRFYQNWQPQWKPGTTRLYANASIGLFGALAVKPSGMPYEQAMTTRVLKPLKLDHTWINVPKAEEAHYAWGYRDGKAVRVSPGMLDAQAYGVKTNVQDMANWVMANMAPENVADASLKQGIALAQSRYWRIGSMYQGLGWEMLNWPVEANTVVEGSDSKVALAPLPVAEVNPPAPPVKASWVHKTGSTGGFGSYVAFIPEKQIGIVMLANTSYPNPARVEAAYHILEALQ

As for `CC(C)(C)[Si](C)(C)O[C@H]1C[C@]12C(=O)N1[C@@H](C(=O)O)C(C)(C)S(=O)(=O)[C@@H]12.CCN1CCN(C(=O)N[C@@H](C(=O)N[C@@H]2C(=O)N3[C@@H]2SC(C)(C)[C@@H]3C(=O)O)c2ccccc2)C(=O)C1=O` [listing 1 of 2 here], in the assay on Escherichia coli, the MIC is < 0.06 µg/mL. Regarding `CC1(C)[C@H](C(=O)O)N2C(=O)[C@@]3(C[C@H]3OC3CCCCC3)[C@H]2S1(=O)=O`, on Beta-lactamase, the IC50 is > 3200 nM. As to `CCN1CCN(C(=O)N[C@@H](C(=O)N[C@@H]2C(=O)N3[C@@H]2SC(C)(C)[C@@H]3C(=O)O)c2ccccc2)C(=O)C1=O.C[C@]1(Cn2ccnn2)[C@H](C(=O)O)N2C(=O)C[C@H]2S1(=O)=O` [listing 1 of 2 here], the MIC with Serratia marcescens came out at 32 µg/mL. With `CC(C)(C)[Si](C)(C)O[C@H]1C[C@]12C(=O)N1[C@@H](C(=O)O)C(C)(C)S(=O)(=O)[C@@H]12`, the half-inhibitory concentration (IC50) against Beta-lactamase amounted to 20 nM. Consider `CCN1CCN(C(=O)N[C@@H](C(=O)N[C@@H]2C(=O)N3[C@@H]2SC(C)(C)[C@@H]3C(=O)O)c2ccccc2)C(=O)C1=O` [PIPERACILLIN], for which the MIC in the assay on Escherichia coli was > 64 µg/mL. Regarding `CC(C)(C)[Si](C)(C)O[C@H]1C[C@]12C(=O)N1[C@@H](C(=O)O)C(C)(C)S(=O)(=O)[C@@H]12.CCN1CCN(C(=O)N[C@@H](C(=O)N[C@@H]2C(=O)N3[C@@H]2SC(C)(C)[C@@H]3C(=O)O)c2ccccc2)C(=O)C1=O` [listing 2 of 2 here], the MIC worked out at 8 µg/mL in assay [1], 4 µg/mL in assay [2] and 8 µg/mL in assay [3]. In the case of `CC(C)(C)[Si](C)(C)O[C@H]1CC12C(=O)N1C(C(=O)O)C(C)(C)S(=O)(=O)[C@@H]12` (single isomer, unassigned), at Beta-lactamase, the IC50 came out at 4100 nM. In turn, `CCN1CCN(C(=O)N[C@@H](C(=O)N[C@@H]2C(=O)N3[C@@H]2SC(C)(C)[C@@H]3C(=O)O)c2ccccc2)C(=O)C1=O.C[C@]1(Cn2ccnn2)[C@H](C(=O)O)N2C(=O)C[C@H]2S1(=O)=O` [listing 2 of 2 here] showed an MIC in assay [2] of 4 µg/mL. Still for that read-out and setting: with `CC1(C)[C@H](C(=O)O)N2C(=O)[C@]3(C[C@@H]3OC3CCCCC3)[C@H]2S1(=O)=O.CCN1CCN(C(=O)N[C@@H](C(=O)N[C@@H]2C(=O)N3[C@@H]2SC(C)(C)[C@@H]3C(=O)O)c2ccccc2)C(=O)C1=O` [listing 1 of 2 here] the figure was 8 µg/mL. Regarding `CC1(C)[C@H](C(=O)O)N2C(=O)[C@]3(C[C@@H]3OC3CCCCC3)[C@H]2S1(=O)=O`, the IC50 at Beta-lactamase was determined as 30 nM. In turn, `CC1(C)[C@H](C(=O)O)N2C(=O)[C@]3(C[C@@H]3OC3CCCCC3)[C@H]2S1(=O)=O.CCN1CCN(C(=O)N[C@@H](C(=O)N[C@@H]2C(=O)N3[C@@H]2SC(C)(C)[C@@H]3C(=O)O)c2ccccc2)C(=O)C1=O` [listing 2 of 2 here] yielded an MIC in the assay on Escherichia coli of 64 µg/mL. With `CC1(C)[C@H](C(=O)O)N2C(=O)[C@@]3(C[C@@H]3OC3CCCCC3)[C@H]2S1(=O)=O`, half-maximal inhibition at Beta-lactamase (IC50) required 3200 nM. For `CC(C)(C)[Si](C)(C)O[C@@H]1CC12C(=O)N1[C@@H](C(=O)O)C(C)(C)S(=O)(=O)[C@@H]12` (single isomer, unassigned), the IC50 against Beta-lactamase came out at 400 nM.

Broadly, the IC50 is the concentration at which inhibition is half-maximal. High values mean weaker potency, low ones greater potency.

The record behind these values is ChEMBL document CHEMBL1145799, “Spirocyclopropyl beta-lactams as mechanism-based inhibitors of serine beta-lactamases. Synthesis by rhodium-catalyzed cyclopropanation of 6-diazopenicillanate sulfone” (J Med Chem, 2003).
